According to ChEMBL document CHEMBL2380208, “Novel quinoline derivatives as inhibitors of bacterial DNA gyrase and topoisomerase IV” (Bioorg Med Chem Lett, 2013):
≈ marks a conversion by molar mass, not a printed value.

Assays:
Staphylococcus aureus [1] = test: Antibacterial activity against fluoroquinolone-resistant Staphylococcus aureus harboring DNA gyrase D83N mutant; type: functional
Staphylococcus aureus [2] = test: Antibacterial activity against fluoroquinolone-resistant Staphylococcus aureus 1095; type: functional
DNA gyrase = DNA gyrase (Staphylococcus aureus, UniProt P0A0K8+P20831); test: Inhibition of Staphylococcus aureus DNA gyrase; type: protein-complex assay
[3] = Inhibition of Staphylococcus aureus DNA topoisomerase 4
Staphylococcus aureus [4] = test: Antibacterial activity against Staphylococcus aureus 1146; type: functional
Staphylococcus aureus [5] = test: Antibacterial activity against fluoroquinolone-resistant Staphylococcus aureus harboring DNA gyrase M121K mutant; type: functional

| Compound | MIC (Staphylococcus aureus [1]) | MIC (Staphylococcus aureus [2]) | IC50 (DNA gyrase) | IC50 [3] | MIC (Staphylococcus aureus [4]) | MIC (Staphylococcus aureus [5]) |
| --- | --- | --- | --- | --- | --- | --- |
| COc1ccc2nccc([C@@H](O)CC[C@@H]3CCN(C4CC(c5ccccc5SC)C4)C[C@@H]3C(=O)O)c2c1 (stereo partly drawn) | 64 µg/mL (≈ 123 µM) | 2 µg/mL (≈ 3.84 µM) | 3.13 µM | 50 µM | 0.25 µg/mL (≈ 0.48 µM) |  |
| COc1ccc2nccc([C@@H](O)CC[C@@H]3CCN(C4CC(c5c(F)cc(F)cc5F)C4)C[C@@H]3C(=O)O)c2c1 (stereo partly drawn) | > 64 µg/mL | 0.5 µg/mL (≈ 0.946 µM) | 6.25 µM | 120 µM |  | > 64 µg/mL |
| COc1ccc2nccc([C@@H](O)CC[C@@H]3CCN(C4CC(c5ccn(C)n5)C4)C[C@@H]3C(=O)O)c2c1 (stereo partly drawn) |  | > 64 µg/mL | 19 µM | > 120 µM | > 64 µg/mL |  |
| COc1ccc2nccc([C@@H](O)CC[C@@H]3CCN(C4CC(c5cc(C(F)(F)F)ccc5F)C4)C[C@@H]3C(=O)O)c2c1 (stereo partly drawn) |  | 4 µg/mL (≈ 7.14 µM) | 25 µM | > 100 µM |  |  |
| COc1ccc2nccc([C@@H](O)CC[C@@H]3CCN(C4CC(c5cccc(OC)c5F)C4)C[C@@H]3C(=O)O)c2c1 (stereo partly drawn) | > 64 µg/mL | 64 µg/mL (≈ 122 µM) | 19 µM | > 200 µM |  |  |
| COc1ccc2nccc([C@@H](O)CC[C@@H]3CCN(C4CC(c5cc(SC)ccc5F)C4)C[C@@H]3C(=O)O)c2c1 (stereo partly drawn) | 64 µg/mL (≈ 119 µM) | 2 µg/mL (≈ 3.71 µM) | 3.13 µM | 50 µM | 0.25 µg/mL (≈ 0.464 µM) |  |
| COc1ccc2nccc([C@@H](O)CC[C@@H]3CCN(C4CC(c5ccc(C(F)(F)F)cc5F)C4)C[C@@H]3C(=O)O)c2c1 (stereo partly drawn) | > 64 µg/mL | 4 µg/mL (≈ 7.14 µM) | 6.25 µM | > 200 µM |  |  |
| COc1ccc(C2CC(N3CC[C@@H](CC[C@H](O)c4ccnc5ccc(OC)cc45)[C@@H](C(=O)O)C3)C2)c(F)c1 (stereo partly drawn) | > 64 µg/mL | 64 µg/mL (≈ 122 µM) | 50 µM | > 240 µM |  |  |
| COc1ccc2nccc([C@@H](O)CC[C@@H]3CCN(C4CC(c5cc(Br)ccc5F)C4)C[C@@H]3C(=O)O)c2c1 (stereo partly drawn) |  | 0.25 µg/mL (≈ 0.437 µM) | 3.13 µM | 50 µM | ≤ 0.0625 µg/mL |  |
| COc1ccc2nccc([C@@H](O)CC[C@@H]3CCN(C4CC(c5ncc(C)o5)C4)C[C@@H]3C(=O)O)c2c1 (stereo partly drawn) |  | 8 µg/mL (≈ 16.7 µM) | 6.25 µM | > 100 µM | 2 µg/mL (≈ 4.17 µM) |  |
| COc1ccc2nccc([C@@H](O)CC[C@@H]3CCN(C4CC(c5cccc(SC)c5)C4)C[C@@H]3C(=O)O)c2c1 (stereo partly drawn) | 64 µg/mL (≈ 123 µM) | 8 µg/mL (≈ 15.4 µM) | 4.7 µM | 150 µM | 2 µg/mL (≈ 3.84 µM) |  |
| COc1ccc2nccc([C@@H](O)CC[C@@H]3CCN(C4CC(c5ccccc5C(F)(F)F)C4)C[C@@H]3C(=O)O)c2c1 (stereo partly drawn) |  | 0.25 µg/mL (≈ 0.461 µM) | 1.56 µM | 60 µM | 0.125 µg/mL (≈ 0.23 µM) |  |
| COc1ccc2nccc([C@@H](O)CC[C@@H]3CCN(C4CC(c5cccc(F)c5C)C4)C[C@@H]3C(=O)O)c2c1 (stereo partly drawn) | > 64 µg/mL | 0.5 µg/mL (≈ 0.987 µM) | 25 µM | > 120 µM |  | > 64 µg/mL |
| COc1ccc2nccc([C@@H](O)CC[C@@H]3CCN(C4CC(c5cccc(C(F)(F)F)c5F)C4)C[C@@H]3C(=O)O)c2c1 (stereo partly drawn) |  | 0.5 µg/mL (≈ 0.892 µM) | 6.25 µM | 200 µM |  | > 64 µg/mL |
| COc1ccc2nccc([C@@H](O)CC[C@@H]3CCN(C4CC(c5cccc(Cl)c5F)C4)C[C@@H]3C(=O)O)c2c1 (stereo partly drawn) | > 64 µg/mL | ≤ 0.0625 µg/mL | 2.4 µM | 75 µM |  | > 64 µg/mL |
| COc1ccc2nccc([C@@H](O)CC[C@@H]3CCN(C4CC(c5c(F)ccc(Cl)c5F)C4)C[C@@H]3C(=O)O)c2c1 (stereo partly drawn) | > 64 µg/mL | 0.25 µg/mL (≈ 0.459 µM) | 3.13 µM | 25 µM |  | > 64 µg/mL |
| COc1ccc2nccc([C@@H](O)CC[C@@H]3CCN(C4CC(c5ccc(Cl)cc5F)C4)C[C@@H]3C(=O)O)c2c1 (stereo partly drawn) | > 64 µg/mL | 1 µg/mL (≈ 1.9 µM) | 6.25 µM | > 100 µM |  | > 64 µg/mL |

| Compound | MIC (Staphylococcus aureus [1]) | MIC (Staphylococcus aureus [2]) | IC50 (DNA gyrase) | IC50 [3] | MIC (Staphylococcus aureus [4]) | MIC (Staphylococcus aureus [5]) |
| --- | --- | --- | --- | --- | --- | --- |
| COc1ccc2nccc([C@@H](O)CC[C@@H]3CCN(C4CC(c5ccn[nH]5)C4)C[C@@H]3C(=O)O)c2c1 (stereo partly drawn) |  | > 64 µg/mL | > 25 µM | > 120 µM | > 64 µg/mL |  |
| COc1ccc2nccc([C@@H](O)CC[C@@H]3CCN(C4CC(c5ccc(-c6ccccc6)cc5)C4)C[C@@H]3C(=O)O)c2c1 (stereo partly drawn) |  | > 64 µg/mL | > 50 µM | 120 µM | > 64 µg/mL |  |
| COc1ccc(F)c(C2CC(N3CC[C@@H](CC[C@H](O)c4ccnc5ccc(OC)cc45)[C@@H](C(=O)O)C3)C2)c1 (stereo partly drawn) | > 64 µg/mL | 4 µg/mL (≈ 7.65 µM) | 50 µM | > 120 µM |  | > 64 µg/mL |
| COc1ccc2nccc([C@@H](O)CC[C@@H]3CCN(C4CC(c5ccno5)C4)C[C@@H]3C(=O)O)c2c1 (stereo partly drawn) |  | 8 µg/mL (≈ 17.2 µM) | 3.13 µM | 60 µM | 2 µg/mL (≈ 4.3 µM) |  |
| COc1ccc2nccc([C@@H](O)CC[C@@H]3CCN(C4CC(c5cc(C)ccc5F)C4)C[C@@H]3C(=O)O)c2c1 (stereo partly drawn) | > 64 µg/mL |  | 1.56 µM | 75 µM |  | > 64 µg/mL |
| COc1ccc2nccc([C@@H](O)CC[C@@H]3CCN(C4CC(c5c(F)cccc5Cl)C4)C[C@@H]3C(=O)O)c2c1 (stereo partly drawn) | 64 µg/mL (≈ 121 µM) |  | 4.7 µM | 60 µM |  | 32 µg/mL (≈ 60.7 µM) |
| COc1ccc2nccc([C@@H](O)CC[C@@H]3CCN(C4CC(c5cc(F)ccc5C)C4)C[C@@H]3C(=O)O)c2c1 (stereo partly drawn) |  | 0.5 µg/mL (≈ 0.987 µM) | 2.3 µM | 45 µM | 0.125 µg/mL (≈ 0.247 µM) |  |
| COc1ccc2nccc([C@@H](O)CC[C@@H]3CCN(C4CC(c5ccc(F)c(C#N)c5)C4)C[C@@H]3C(=O)O)c2c1 (stereo partly drawn) |  | > 64 µg/mL | 3.13 µM | > 200 µM |  |  |
| COc1ccc2nccc([C@@H](O)CC[C@@H]3CCN(C4CC(c5ccccc5OC)C4)C[C@@H]3C(=O)O)c2c1 (stereo partly drawn) |  | 1 µg/mL (≈ 1.98 µM) | 6.25 µM | > 240 µM | 0.5 µg/mL (≈ 0.991 µM) |  |
| COc1ccc2nccc([C@@H](O)CC[C@@H]3CCN(C4CC(c5ccnc(C)n5)C4)C[C@@H]3C(=O)O)c2c1 (stereo partly drawn) |  | > 64 µg/mL | 50 µM | > 120 µM | > 64 µg/mL |  |
| COc1ccc2nccc([C@@H](O)CC[C@@H]3CCN(C4CC(c5ccc(C#N)cc5)C4)C[C@@H]3C(=O)O)c2c1 (stereo partly drawn) |  | > 64 µg/mL | > 50 µM | 240 µM | > 64 µg/mL |  |
| COc1ccc2nccc([C@@H](O)CC[C@@H]3CCN(C4CC(c5ccncn5)C4)C[C@@H]3C(=O)O)c2c1 (stereo partly drawn) |  | > 64 µg/mL | 19 µM | 120 µM | 64 µg/mL (≈ 134 µM) |  |
| COc1ccc2nccc([C@@H](O)CC[C@@H]3CCN(C4CC(c5c(F)cccc5C(F)(F)F)C4)C[C@@H]3C(=O)O)c2c1 (stereo partly drawn) |  | 2 µg/mL (≈ 3.57 µM) | 19 µM | > 100 µM | 0.5 µg/mL (≈ 0.892 µM) |  |
| COc1ccc2nccc([C@@H](O)CC[C@@H]3CCN(C4CC(c5c(F)cccc5OC)C4)C[C@@H]3C(=O)O)c2c1 (stereo partly drawn) |  | 2 µg/mL (≈ 3.83 µM) | 12.5 µM | 100 µM | 0.25 µg/mL (≈ 0.478 µM) |  |
| COc1ccc2nccc([C@@H](O)CC[C@@H]3CCN(C4CC(c5cc(F)ccc5OC)C4)C[C@@H]3C(=O)O)c2c1 (stereo partly drawn) |  | 4 µg/mL (≈ 7.65 µM) | 12.5 µM | 37 µM | 0.5 µg/mL (≈ 0.957 µM) |  |
| COc1ccc2nccc([C@@H](O)CC[C@@H]3CCN(C4CC(c5cc(C#N)ccc5F)C4)C[C@@H]3C(=O)O)c2c1 (stereo partly drawn) | 64 µg/mL (≈ 124 µM) | 8 µg/mL (≈ 15.5 µM) | 9.4 µM | 120 µM | 2 µg/mL (≈ 3.86 µM) |  |
| COc1ccc2nccc([C@@H](O)CC[C@@H]3CCN(C4CC(c5cccc(C#N)c5)C4)C[C@@H]3C(=O)O)c2c1 (stereo partly drawn) |  | 16 µg/mL (≈ 32 µM) | 9.4 µM | > 200 µM |  |  |
